47 compounds from patent US8399480B2, “Hydroxymethyl pyrrolidines as beta 3 adrenergic receptor agonists” (Merck Sharp & Dohme Corp., priority 2008, dated 2013) can be followed below.

This test has as its target T1, human β3 adrenergic receptor (Homo sapiens, UniProt P13945).
T1 construct: expressed in transfected cells; host or cells: Chinese hamster ovary (CHO) cells, stably transfected
As to the kind of experiment: Functional assay: cAMP production (LANCE TR-FRET) in CHO cells stably transfected with cloned β3 adrenergic receptor. Conditions: Table 5; read-out: Human β3 Functional. The class given is cell-based. Here is the method: Chinese hamster ovary (CHO) cells, stably transfected with the cloned β-adrenergic receptor (β1, β2 or β3) are harvested after 3 days of subculturing. Harvesting of cells is done with Enzyme-free Dissociation Media (Specialty Media). Cells are then counted and resuspended in assay buffer (Hank's Balanced salt solution supplemented with 5 mM HEPES, 0.1% BSA) containing a phosphodiesterase inhibitor (IBMX, 0.6 mM). The reaction is initiated by mixing 6,000 cells in 6 μL with 6 μL Alexa Fluor labeled cAMP antibody (LANCE™ kit) which is then added to an assay well containing 12 μL of compound (diluted in assay buffer to 2× final concentration). The reaction proceeds for 30 min at room temperature and is terminated by the addition of 24 μL detection buffer (LANCE™ kit). The assay plate is then incubated for 1 h at room temperature and time-resolved fluorescence measured on a Perkin Elmer Envision reader or equivalent. The unknown cAMP level is determined by comparing fluorescence levels to a cAMP standard curve.
The non-selective, full agonist β-adrenergic ligand isoproterenol is used at all three receptors to determine maximal stimulation. […] Data are analyzed using Microsoft Excel and Graphpad Prism or an internally developed data analysis software package.

Bounds are passed on as bounds.

T1 sequence (P13945 whole entry): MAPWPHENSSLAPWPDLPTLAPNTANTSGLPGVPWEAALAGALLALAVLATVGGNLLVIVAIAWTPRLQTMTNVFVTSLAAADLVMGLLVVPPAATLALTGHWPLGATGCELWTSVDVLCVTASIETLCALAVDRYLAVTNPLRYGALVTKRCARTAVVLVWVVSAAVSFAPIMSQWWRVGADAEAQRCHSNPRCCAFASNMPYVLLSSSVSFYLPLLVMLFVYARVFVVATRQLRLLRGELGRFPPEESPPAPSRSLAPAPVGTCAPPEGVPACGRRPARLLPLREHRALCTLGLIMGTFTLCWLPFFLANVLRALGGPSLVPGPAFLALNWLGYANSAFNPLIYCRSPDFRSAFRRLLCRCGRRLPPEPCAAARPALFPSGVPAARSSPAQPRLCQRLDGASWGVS

As to `O=C(Nc1ccc(C[C@@H]2CC[C@H]([C@H](O)c3ccccc3)N2)cc1)C1CCCc2ccnn21` (single isomer, unassigned) [Example 157], the EC50 was 11 to 100 nM. For the compound `CC(C(=O)Nc1ccc(C[C@@H]2CC[C@H]([C@H](O)c3ccccc3)N2)cc1)n1cccnc1=O` (single isomer, unassigned) [Example 160], the EC50 lay in the range of 1 to 10 nM. As for `CC(C(=O)Nc1ccc(C[C@@H]2CC[C@H]([C@H](O)c3ccccc3)N2)cc1)n1cccnc1=O` (single isomer, unassigned) [Example 161], the EC50 was less than 1 nM. With `CC(C(=O)Nc1ccc(C[C@@H]2CC[C@H]([C@H](O)c3ccccc3)N2)cc1)n1ncccc1=O` (single isomer, unassigned) [Example 162], the EC50 was in the range of 1 to 10 nM. The figure for `Cc1ccc(=O)n(C(C)C(=O)Nc2ccc(C[C@@H]3CC[C@H]([C@H](O)c4ccccc4)N3)cc2)n1` (single isomer, unassigned) [Example 165] is 1 to 10 nM; for `CC(C(=O)Nc1ccc(C[C@@H]2CC[C@H]([C@H](O)c3ccccc3)N2)cc1)n1cnc2ccccc2c1=O` (single isomer, unassigned) [Example 166] it is 1 to 10 nM; for `CC(C(=O)Nc1ccc(C[C@@H]2CC[C@H]([C@H](O)c3ccccc3)N2)cc1)n1cnc2ccccc2c1=O` (single isomer, unassigned) [Example 167] it is less than 1 nM.

As for `CC(C(=O)Nc1ccc(C[C@@H]2CC[C@H]([C@H](O)c3ccccc3)N2)cc1)c1nnc[nH]1` (single isomer, unassigned) [Example 168], the EC50 fell in the range of 1 to 10 nM.

`CC(C(=O)Nc1ccc(C[C@@H]2CC[C@H]([C@H](O)c3ccccc3)N2)cc1)n1cnnn1` (single isomer, unassigned) [Example 172]: the EC50 fell in the range of 1 to 10 nM. `CC(C(=O)Nc1ccc(C[C@@H]2CC[C@H]([C@H](O)c3ccccc3)N2)cc1)n1cnnn1` (single isomer, unassigned) [Example 173]: the EC50 lay within 1 to 10 nM. As for `CC(C(=O)Nc1ccc(C[C@@H]2CC[C@H]([C@H](O)c3ccccc3)N2)cc1)n1cncn1` (single isomer, unassigned) [Example 176], the EC50 was 1 to 10 nM. As to `CC(C(=O)Nc1ccc(C[C@@H]2CC[C@H]([C@H](O)c3ccccc3)N2)cc1)n1cncn1` (single isomer, unassigned) [Example 177], the EC50 fell in the range of 1 to 10 nM. Consider `CC(C(=O)Nc1ccc(C[C@@H]2CC[C@H]([C@H](O)c3ccccc3)N2)cc1)n1nccn1` (single isomer, unassigned) [Example 178], for which the EC50 was 1 to 10 nM. For the compound `CC(C(=O)Nc1ccc(C[C@@H]2CC[C@H]([C@H](O)c3ccccc3)N2)cc1)n1nccn1` (single isomer, unassigned) [Example 179], the EC50 lay in the range of 1 to 10 nM. For the compound `CC(C(=O)Nc1ccc(C[C@@H]2CC[C@H]([C@H](O)c3ccccc3)N2)cc1)n1cccn1` (single isomer, unassigned) [Example 181], the EC50 was in the range of 1 to 10 nM. Regarding `CC(C(=O)Nc1ccc(C[C@@H]2CC[C@H]([C@H](O)c3ccccc3)N2)cc1)n1ccnn1` (single isomer, unassigned) [Example 182], the EC50 fell in the range of 11 to 100 nM.

In the case of `CC(C(=O)Nc1ccc(C[C@@H]2CC[C@H]([C@H](O)c3ccccc3)N2)cc1)n1ccnn1` (single isomer, unassigned) [Example 183], the EC50 lay in the range of 1 to 10 nM. As to `Cc1cc(C(C)C(=O)Nc2ccc(C[C@@H]3CC[C@H]([C@H](O)c4ccccc4)N3)cc2)[nH]n1` (single isomer, unassigned) [Example 184], the EC50 was 11 to 100 nM. With `Cc1cc(C(C)C(=O)Nc2ccc(C[C@@H]3CC[C@H]([C@H](O)c4ccccc4)N3)cc2)[nH]n1` (single isomer, unassigned) [Example 185], the EC50 was 1 to 10 nM.

As for `CC(C(=O)Nc1ccc(CC2CCC(C(O)c3ccccc3)N2)cc1)c1ccn(C)n1` (single isomer, unassigned) [Example 186], the EC50 lay within 101 to 1000 nM. As for `CC(C(=O)Nc1ccc(CC2CCC(C(O)c3ccccc3)N2)cc1)c1ccn(C)n1` (single isomer, unassigned) [Example 187], the EC50 fell in the range of 1 to 10 nM. The same measure for `COC(=O)c1cn(C(C)C(=O)Nc2ccc(C[C@@H]3CC[C@H]([C@H](O)c4ccccc4)N3)cc2)nn1` (single isomer, unassigned) [Example 188]: 1 to 10 nM; for `COC(=O)c1cn(C(C)C(=O)Nc2ccc(C[C@@H]3CC[C@H]([C@H](O)c4ccccc4)N3)cc2)nn1` (single isomer, unassigned) [Example 189]: 11 to 100 nM; for `CC(C(=O)Nc1ccc(C[C@@H]2CC[C@H]([C@H](O)c3ccccc3)N2)cc1)n1cc(C(=O)O)nn1` (single isomer, unassigned) [Example 190]: 11 to 100 nM. Take `CC(C(=O)Nc1ccc(C[C@@H]2CC[C@H]([C@H](O)c3ccccc3)N2)cc1)n1cc(C(=O)O)nn1` (single isomer, unassigned) [Example 191]: the EC50 is 11 to 100 nM.

For `CC(C(=O)Nc1ccc(C[C@@H]2CC[C@H]([C@H](O)c3ccccc3)N2)cc1)n1cc(C(N)=O)nn1` (single isomer, unassigned) [Example 192], the EC50 lay within 1 to 10 nM. Take `CC(C(=O)Nc1ccc(C[C@@H]2CC[C@H]([C@H](O)c3ccccc3)N2)cc1)n1cc(C(N)=O)nn1` (single isomer, unassigned) [Example 193]: the EC50 lay in the range of 11 to 100 nM.

Take `COC(=O)c1cnnn1C(C)C(=O)Nc1ccc(C[C@@H]2CC[C@H]([C@H](O)c3ccccc3)N2)cc1` (single isomer, unassigned) [Example 194]: the EC50 was in the range of 11 to 100 nM. For the compound `COC(=O)c1cnnn1C(C)C(=O)Nc1ccc(C[C@@H]2CC[C@H]([C@H](O)c3ccccc3)N2)cc1` (single isomer, unassigned) [Example 195], the EC50 lay in the range of 1 to 10 nM. For the compound `CC(C(=O)Nc1ccc(C[C@@H]2CC[C@H]([C@H](O)c3ccccc3)N2)cc1)n1nncc1C(=O)O` (single isomer, unassigned) [Example 196], the EC50 is 1 to 10 nM. Turning to `CC(C(=O)Nc1ccc(C[C@@H]2CC[C@H]([C@H](O)c3ccccc3)N2)cc1)n1nncc1C(=O)O` (single isomer, unassigned) [Example 197], the EC50 fell in the range of 1 to 10 nM. Turning to `CC(C(=O)Nc1ccc(C[C@@H]2CC[C@H]([C@H](O)c3ccccc3)N2)cc1)n1nncc1C(N)=O` (single isomer, unassigned) [Example 198], the EC50 is 11 to 100 nM. The same measure for `CC(C(=O)Nc1ccc(C[C@@H]2CC[C@H]([C@H](O)c3ccccc3)N2)cc1)n1nncc1C(N)=O` (single isomer, unassigned) [Example 199]: 1 to 10 nM. Take `CC(C(=O)Nc1ccc(C[C@@H]2CC[C@H]([C@H](O)c3ccccc3)N2)cc1)c1nccs1` (single isomer, unassigned) [Example 200]: the EC50 was less than 1 nM. In the case of `CC(C(=O)Nc1ccc(C[C@@H]2CC[C@H]([C@H](O)c3ccccc3)N2)cc1)c1nccs1` (single isomer, unassigned) [Example 201], the EC50 fell in the range of 1 to 10 nM. The same measure for `CC(C(=O)Nc1ccc(C[C@@H]2CC[C@H]([C@H](O)c3ccccc3)N2)cc1)n1ccccc1=O` (single isomer, unassigned) [Example 202]: 1 to 10 nM. Turning to `CC(C(=O)Nc1ccc(C[C@@H]2CC[C@H]([C@H](O)c3ccccc3)N2)cc1)c1ccccn1` (single isomer, unassigned) [Example 204], the EC50 is 1 to 10 nM.

For `CC(C(=O)Nc1ccc(C[C@@H]2CC[C@H]([C@H](O)c3ccccc3)N2)cc1)c1ccccn1` (single isomer, unassigned) [Example 205], the EC50 lay within 1 to 10 nM. With `CC(C(=O)Nc1ccc(C[C@@H]2CC[C@H]([C@H](O)c3ccccc3)N2)cc1)c1cnccn1` (single isomer, unassigned) [Example 206], the EC50 fell in the range of 1 to 10 nM.

As for `CC(C(=O)Nc1ccc(C[C@@H]2CC[C@H]([C@H](O)c3ccccc3)N2)cc1)c1cnccn1` (single isomer, unassigned) [Example 207], the EC50 lay in the range of 1 to 10 nM.

`CC(C(=O)Nc1ccc(C[C@@H]2CC[C@H]([C@H](O)c3ccccc3)N2)cc1)N1CCOC1=O` (single isomer, unassigned) [Example 208]: the EC50 lay within 1 to 10 nM.

On to `CC(C(=O)Nc1ccc(C[C@@H]2CC[C@H]([C@H](O)c3ccccc3)N2)cc1)N1CCOC1=O` (single isomer, unassigned) [Example 209], for which the EC50 was 11 to 100 nM.

On to `COc1ncncc1C(C)C(=O)Nc1ccc(C[C@@H]2CC[C@H]([C@H](O)c3ccccc3)N2)cc1` (single isomer, unassigned) [Example 212], for which the EC50 lay in the range of 11 to 100 nM.

On to `COc1ncncc1C(C)C(=O)Nc1ccc(C[C@@H]2CC[C@H]([C@H](O)c3ccccc3)N2)cc1` (single isomer, unassigned) [Example 213], for which the EC50 fell in the range of 11 to 100 nM. As for `CC(Oc1cccnn1)C(=O)Nc1ccc(C[C@@H]2CC[C@H]([C@H](O)c3ccccc3)N2)cc1` (single isomer, unassigned) [Example 214], the EC50 lay within 101 to 1000 nM.

With `CC(Oc1cccnn1)C(=O)Nc1ccc(C[C@@H]2CC[C@H]([C@H](O)c3ccccc3)N2)cc1` (single isomer, unassigned) [Example 215], the EC50 is 11 to 100 nM. For `CCC(C(=O)Nc1ccc(C[C@@H]2CC[C@H]([C@H](O)c3ccccc3)N2)cc1)n1nccn1` (single isomer, unassigned) [Example 216], the EC50 lay in the range of 1 to 10 nM.
